# Results reported in ChEMBL document CHEMBL3885861, “Open TG-GATES”.
# Species on record: Rattus norvegicus
# Test: Open TG-GATES - Regimen: Single
# Assay type: toxicity, organism-based, Sprague-Dawley
# Parameters: regimen Single, gender Male, age 6 weeks
# Conditions: in vivo, po, 300 mg/kg, route gavage, dose level Middle; for APTT / Bas / Eos / Fbg / Hb / Ht / Lym / MCH / MCHC / MCV / Mono / Neu / PT / Plat / RBC / Ret / WBC: tissue Blood; for KIDNEY_L / KIDNEY_R / KIDNEY_TOTAL: tissue Kidney; for LIVER: tissue Liver; for A/G / ALP / ALT / AST / BUN / CRE / Ca / Cl / DBIL / GLC / IP / K / LDH / Na / PL / RALB / TBIL / TC / TG / TP / gamma-GTP: tissue Plasma
smiles,measurement,setting,value
CC[C@@H](CO)NCCN[C@@H](CC)CO [ETHAMBUTOL],TERMINAL_BW,3 h,232.2 g
same,APTT,3 h,22.9 s
same,Bas,3 h,0%
same,Eos,3 h,0.6%
same,Fbg,3 h,301.8 mg/dL
same,Hb,3 h,13.7 g/dL
same,Ht,3 h,40.8%
same,Lym,3 h,78%
same,MCH,3 h,22 pg
same,MCHC,3 h,33.6%
same,MCV,3 h,65.5 fL
same,Mono,3 h,2.8%
same,Neu,3 h,18.2%
same,PT,3 h,15.5 s
same,Plat,3 h,120.7 x10_4/uL
same,RBC,3 h,623.8 x10_4/ul
same,Ret,3 h,8.5%
same,WBC,3 h,63.4 x10_2/uL
same,KIDNEY_L,3 h,1 g
same,KIDNEY_R,3 h,1 g
same,KIDNEY_TOTAL,3 h,2 g
same,LIVER,3 h,10.9 g
same,A/G,3 h,1.3
same,ALP,3 h,1703.4 IU/L
same,ALT,3 h,42.6 IU/L
same,AST,3 h,68.2 IU/L
same,BUN,3 h,12.2 mg/dL
same,CRE,3 h,0.1 mg/dL
same,Ca,3 h,10.3 mg/dL
same,Cl,3 h,106.8 meq/L
same,DBIL,3 h,0.002 mg/dL
same,GLC,3 h,190 mg/dL
same,IP,3 h,8.9 mg/dL
same,K,3 h,3.8 meq/L
same,LDH,3 h,187.2 IU/L
same,Na,3 h,141 meq/L
same,PL,3 h,137.4 mg/dL
same,RALB,3 h,3 g/dL
same,TBIL,3 h,0.02 mg/dL
same,TC,3 h,78.2 mg/dL
same,TG,3 h,54.2 mg/dL
same,TP,3 h,5.4 g/dL
same,gamma-GTP,3 h,1.6 IU/L
same,TERMINAL_BW,6 h,224.6 g
same,APTT,6 h,22.5 s
same,Bas,6 h,0%
same,Eos,6 h,1.2%
same,Fbg,6 h,321.2 mg/dL
same,Hb,6 h,14 g/dL
same,Ht,6 h,41%
same,Lym,6 h,75%
same,MCH,6 h,21.5 pg
same,MCHC,6 h,34.1%
same,MCV,6 h,63.1 fL
same,Mono,6 h,2.2%
same,Neu,6 h,20.6%
same,PT,6 h,15.6 s
same,Plat,6 h,124.9 x10_4/uL
same,RBC,6 h,649.8 x10_4/ul
same,Ret,6 h,7.7%
same,WBC,6 h,89.1 x10_2/uL
same,KIDNEY_L,6 h,1 g
same,KIDNEY_R,6 h,1 g
same,KIDNEY_TOTAL,6 h,2 g
same,LIVER,6 h,9.9 g
same,A/G,6 h,1.1
same,ALP,6 h,1416.2 IU/L
same,ALT,6 h,39.4 IU/L
same,AST,6 h,68.6 IU/L
same,BUN,6 h,10 mg/dL
same,CRE,6 h,0.1 mg/dL
same,Ca,6 h,10.2 mg/dL
same,Cl,6 h,106 meq/L
same,DBIL,6 h,0.002 mg/dL
same,GLC,6 h,183.6 mg/dL
same,IP,6 h,9.1 mg/dL
same,K,6 h,4.1 meq/L
same,LDH,6 h,169 IU/L
same,Na,6 h,141 meq/L
same,PL,6 h,139.8 mg/dL
same,RALB,6 h,2.9 g/dL
same,TBIL,6 h,0.022 mg/dL
same,TC,6 h,74.6 mg/dL
same,TG,6 h,76.6 mg/dL
same,TP,6 h,5.5 g/dL
same,gamma-GTP,6 h,1.8 IU/L
same,TERMINAL_BW,9 h,217.6 g
same,APTT,9 h,23 s
same,Bas,9 h,0%
same,Eos,9 h,0.6%
same,Fbg,9 h,334 mg/dL
same,Hb,9 h,13.6 g/dL
same,Ht,9 h,40.2%
same,Lym,9 h,74.4%
same,MCH,9 h,21.4 pg
same,MCHC,9 h,33.7%
same,MCV,9 h,63.5 fL
same,Mono,9 h,1.8%
same,Neu,9 h,22.2%
same,PT,9 h,16.1 s
same,Plat,9 h,122 x10_4/uL
same,RBC,9 h,633.4 x10_4/ul
same,Ret,9 h,7.8%
same,WBC,9 h,74.5 x10_2/uL
same,KIDNEY_L,9 h,1 g
same,KIDNEY_R,9 h,1 g
same,KIDNEY_TOTAL,9 h,2.1 g
same,LIVER,9 h,9.7 g
same,A/G,9 h,1.2
same,ALP,9 h,1255.8 IU/L
same,ALT,9 h,37 IU/L
same,AST,9 h,68.2 IU/L
same,BUN,9 h,9.6 mg/dL
same,CRE,9 h,0.1 mg/dL
same,Ca,9 h,10.4 mg/dL
same,Cl,9 h,107 meq/L
same,DBIL,9 h,0 mg/dL
same,GLC,9 h,176.8 mg/dL
same,IP,9 h,9.4 mg/dL
same,K,9 h,3.9 meq/L
same,LDH,9 h,139.4 IU/L
same,Na,9 h,141.6 meq/L
same,PL,9 h,136.8 mg/dL
same,RALB,9 h,3 g/dL
same,TBIL,9 h,0.036 mg/dL
same,TC,9 h,78.6 mg/dL
same,TG,9 h,53.4 mg/dL
same,TP,9 h,5.6 g/dL
same,gamma-GTP,9 h,1.8 IU/L
same,TERMINAL_BW,24 h,235.9 g
same,APTT,24 h,22 s
same,Bas,24 h,0%
same,Eos,24 h,1%
same,Fbg,24 h,339.2 mg/dL
same,Hb,24 h,13.7 g/dL
same,Ht,24 h,39.7%
same,Lym,24 h,81.6%
same,MCH,24 h,22 pg
same,MCHC,24 h,34.6%
same,MCV,24 h,63.5 fL
same,Mono,24 h,3%
same,Neu,24 h,13.2%
same,PT,24 h,15.9 s
same,Plat,24 h,117.6 x10_4/uL
same,RBC,24 h,625.8 x10_4/ul
same,Ret,24 h,7.3%
same,WBC,24 h,107.5 x10_2/uL
same,KIDNEY_L,24 h,1.1 g
same,KIDNEY_R,24 h,1.1 g
same,KIDNEY_TOTAL,24 h,2.2 g
same,LIVER,24 h,12.3 g
same,A/G,24 h,1.2
same,ALP,24 h,1520.4 IU/L
same,ALT,24 h,46 IU/L
same,AST,24 h,69.4 IU/L
same,BUN,24 h,14.6 mg/dL
same,CRE,24 h,0.1 mg/dL
same,Ca,24 h,10.5 mg/dL
same,Cl,24 h,105.2 meq/L
same,DBIL,24 h,0 mg/dL
same,GLC,24 h,187.4 mg/dL
same,IP,24 h,8.5 mg/dL
same,K,24 h,3.9 meq/L
same,LDH,24 h,145.8 IU/L
same,Na,24 h,141 meq/L
same,PL,24 h,155.6 mg/dL
same,RALB,24 h,3.1 g/dL
same,TBIL,24 h,0.014 mg/dL
same,TC,24 h,82.4 mg/dL
same,TG,24 h,89.4 mg/dL
same,TP,24 h,5.7 g/dL
same,gamma-GTP,24 h,2 IU/L
